Legend:
[1] = target: human IRAK4 FL (Full Length), phosphorylated (Homo sapiens (Human), UniProt Q9NWZ3); assay: IRAK4 Enzymatic DELFIA Assay, Protocol A; type: biochemical; settings: 600 μM ATP (KM); full-length phosphorylated recombinant human IRAK4
Method: IRAK4 Enzymatic DELFIA Assay, Protocol A.
This is an in vitro assay to measure IRAK4 enzymatic activity utilizing the DELFIA (Dissociation-Enhanced Lanthanide Fluorescent Immunoassay, Perkin-Elmer) platform, with the human IRAK4 FL (Full Length) construct to characterize IRAK4 inhibitor and control compounds at 600 μM ATP (KM). The final amount of enzyme in the assay is 0.1 nM IRAK4 FL, final concentration of substrate is 50 nM, and final concentration of DMSO is 2.5%.
The test compound was solubilized in DMSO to a stock concentration of 30 mM. The dose response plates were prepared with a 4 mM primary compound concentration (40-fold multiple of the final in-assay concentration), and diluted in DMSO in a four-fold series for a total of 11 data points. 1 μL of the compound dilution plate is spotted into ultra-clear polypropylene, 384-well, U-bottom plates (Corning Life Sciences).
To begin the assay, 19 μL of reaction mixture containing 20 mM HEPES pH=7.5, 5 mM MgCl2, 0.0025% Brij-35, 600 μM ATP, 0.21 nM Full-length phosphorylated recombinant human IRAK4 (GenBank ID AF445802) are aliquoted into the polypropylene, 384-well, U-bottom plates containing 1 μL of test compound, mixed briefly and incubated for 20 minutes at room temperature (RT). Then, 20 μL of 20 mM HEPES pH=7.5, 5 mM MgCl2, 0.0025% Brij-35, 600 μM ATP, and 100 nM ERM-biotinylated peptide (AGAGRDKYKTLRQIR) is added to start the reaction. The reaction is incubated for 60 minutes at RT and stopped by the addition of 20 μL 0.3M EDTA.
(§1) 50 μL of the reaction mixture was transferred to a streptavidin-coated detection plate (DELFIA streptavidin coated plates, 384-well, white plates, Perkin-Elmer Life Sciences) and incubated for 30 minutes at RT. The plates were washed 4× with 75 μL per well of PBS containing 0.05% Tween-20. Plates were then incubated with 50 μL per well of antibody cocktail of Anti-pERM antibody at 0.125 μg/mL (Cell Signaling Technology), plus Anti-Rabbit IgG EuN1 at 0.25 μg/ml (Perkin-Elmer Life Sciences) in a solution of 10 mM MOPS pH=7.5, 150 mM NaCl, 0.05% Tween-20, 0.02% NaN3, 1% BSA, 0.1% Gelatin for 45 minutes. The plates were then washed as before. 50 μL per well of DELFIA Enhancement Solution (Perkin-Elmer Life Sciences) was added to the plate and incubated for 15 minutes at RT prior to being read on an Envision Model 2104 multi-label reader using a 340 nm excitation wavelength and a […] emission wavelength for detection.

[2] = target: inactive, unphosphorylated (0-phos), human IRAK4 FL (Full Length) (Homo sapiens (Human), UniProt Q9NWZ3); assay: IRAK4 Enzymatic DELFIA Assay, Protocol B; type: biochemical; settings: 600 μM ATP (KM), full-length recombinant human IRAK4
Method: IRAK4 Enzymatic DELFIA Assay, Protocol B.
The test compound is solubilized in DMSO to a stock concentration of 30 mM. The dose response plates were prepared with a 4 mM primary compound concentration, serialized in DMSO and spotted (1 μL) into 384-well polypropylene plates as before.
20 uL of 20 mM HEPES pH=7.5, 5 mM MgCl2, 0.0025% Brij-35, 600 μM ATP, and 100 nM ERM-biotinylated peptide (AGAGRDKYKTLRQIR) was added to start the reaction, which was run for 90 minutes at RT and stopped by the addition of 20 μL 0.3M EDTA.
as §1

inactive, unphosphorylated (0-phos), human IRAK4 FL (Full Length), sequence (Q9NWZ3 whole entry): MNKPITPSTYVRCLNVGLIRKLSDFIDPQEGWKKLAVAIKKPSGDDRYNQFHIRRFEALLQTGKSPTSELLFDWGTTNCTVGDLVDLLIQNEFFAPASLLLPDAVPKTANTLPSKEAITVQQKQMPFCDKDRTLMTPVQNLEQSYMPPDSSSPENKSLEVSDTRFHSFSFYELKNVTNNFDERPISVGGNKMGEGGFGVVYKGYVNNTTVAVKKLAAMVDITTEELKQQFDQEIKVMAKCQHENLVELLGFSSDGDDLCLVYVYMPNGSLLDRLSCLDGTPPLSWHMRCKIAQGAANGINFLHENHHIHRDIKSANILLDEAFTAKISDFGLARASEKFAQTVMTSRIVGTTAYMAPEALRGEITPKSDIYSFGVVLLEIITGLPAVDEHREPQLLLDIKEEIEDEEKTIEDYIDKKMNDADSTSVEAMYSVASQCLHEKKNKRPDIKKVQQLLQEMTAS
human IRAK4 FL (Full Length), phosphorylated, sequence (Q9NWZ3 whole entry): as above

Question: Which results are given for `COc1cc2c(OC[C@@H]3NC(=O)[C@@H](F)C34CC4)nccc2cc1C(N)=O` [Example 22, 1-(((4R,7S)-7-fluoro-6-oxo-5-azaspiro[2.4]heptan-4-yl)methoxy)-7-methoxyisoquinoline-6-carboxamide]?
Answer: IC50 [1]: 26000 nM; IC50 [2]: 1700 nM

Question: Which results are given for `COc1cc2c(OC[C@@H]3NC(=O)[C@H](F)C34CC4)nccc2cc1C(N)=O` [Example 23, 1-(((4R,7R)-7-fluoro-6-oxo-5-azaspiro[2.4]heptan-4-yl)methoxy)-7-methoxyisoquinoline-6-carboxamide]?
Answer: IC50 [1]: 1450 nM; IC50 [2]: 110 nM

Question: With `COc1cc2c(OC[C@H]3NC(=O)[C@@H](F)C34CC4)nccc2cc1C(N)=O` [Example 24, 1-(((4S,7S)-7-fluoro-6-oxo-5-azaspiro[2.4]heptan-4-yl)methoxy)-7-methoxyisoquinoline-6-carboxamide] as the compound, how does the IC50 [1] read?
Answer: 5.2 nM

Question: What about the IC50 [2] of the same compound?
Answer: 0.8 nM

Question: For `CC[C@@H]1CC(=O)N[C@@H]1COc1cncc2cc(C(N)=O)c(OC)cc12` [Example 25, 4-(((2S,3R)-3-ethyl-5-oxopyrrolidin-2-yl)methoxy)-6-methoxyisoquinoline-7-carboxamide], which IC50 [1] is on record?
Answer: 47 nM

Question: What about the IC50 [2] of the same compound?
Answer: 2.7 nM

Question: Which IC50 [1] does the source give for `CC[C@@H]1[C@H](F)C(=O)N[C@@H]1COc1cncc2cc(C(N)=O)c(OC)cc12` [Example 26, 4-(((2S,3S,4S)-3-ethyl-4-fluoro-5-oxopyrrolidin-2-yl)methoxy)-6-methoxyisoquinoline-7-carboxamide] here?
Answer: 7.7 nM

Question: What about the IC50 [2] of the same compound?
Answer: 0.3 nM

Question: `CC[C@@H]1[C@H](F)C(=O)N[C@@H]1COc1cccc2cc(C(N)=O)c(OC)cc12` [Example 27, 5-(((2S,3S,4S)-3-ethyl-4-fluoro-5-oxopyrrolidin-2-yl)methoxy)-3-methoxy-2-naphthamide] was tested. Which IC50 [1] did it give?
Answer: 0.8 nM

Question: What about the IC50 [2] of the same compound?
Answer: 0.1 nM

Question: `COc1cc2c(OC[C@]34C[C@H]3CC(=O)N4)nccc2cc1C(N)=O` [Example 30, 7-methoxy-1-{[(1S,5S)-3-oxo-2-azabicyclo[3.1.0]hex-1-yl]methoxy}isoquinoline-6-carboxamide] was tested. Which IC50 [1] did it give?
Answer: 4300 nM

Question: What about the IC50 [2] of the same compound?
Answer: 151 nM

Question: What does the source list for `COc1cc2c(OC[C@@]34C[C@@H]3CC(=O)N4)nccc2cc1C(N)=O` [Example 31, 7-methoxy-1-{[(1R,5R)-3-oxo-2-azabicyclo[3.1.0]hex-1-yl]methoxy}isoquinoline-6-carboxamide]?
Answer: IC50 [1]: > 100000 nM; IC50 [2]: 1200 nM

Question: How did the IC50 [1] turn out when `CC[C@@H]1[C@H](F)C(=O)N[C@@H]1COc1nccc2nc(C(N)=O)c(OC)cc12` [Example 32, 5-{[(2S,3S,4S)-3-ethyl-4-fluoro-5-oxopyrrolidin-2-yl]methoxy}-3-methoxy-1,6-naphthyridine-2-carboxamide] was run?
Answer: 27 nM

Question: And the IC50 [2]?
Answer: 4.5 nM

Reference: patent US10174000B2, “Bicyclic-fused heteroaryl or aryl compounds as IRAK4 modulators” (PFIZER INC., priority 2015, dated 2019)
